Measured values from patent US8574563B2 (Bristol-Myers Squibb Company, priority 2006, dated 2013).
Read-outs that look alike come from different tables or passages of the source.

Tested on: HCV 1b-377-neo replicon cells
Assay: HCV replicon assay, HCV 1b-377-neo replicon cells (1b FRET)
Assay type: cell-based, Hepatitis C virus genotype 1b
Conditions: HCV 1b-377-neo replicon cells, HCV 1b genotype, read-out: EC50 range against HCV 1b (Table 2, Range)
In short: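 Compounds were tested in genotype 1b subgenomic replicon cells carrying a neomycin marker, alongside a matched replicon line with an NS5A Y2065H substitution that confers resistance to a reference NS5A inhibitor.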

COC(=O)N[C@@H](C(=O)N1CCC[C@H]1c1ncc(-c2ccc(-c3ccc(-c4cnc([C@@H]5CCCN5C(=O)[C@H](NC(=O)OC)c5ccccc5)[nH]4)cc3C)cc2)[nH]1)c1ccccc1 [Example 124, dimethyl ((2-methyl-4,4′-biphenyldiyl)bis(1H-imidazole-5,2-diyl(2S)-2,1-pyrrolidinediyl((1R)-2-oxo-1-phenyl-2,1-ethanediyl)))biscarbamate] gave an EC50 (Hepatitis C virus) of 0.001 to 0.999 nM.

Cc1cc(-c2cnc([C@@H]3CCCN3C(=O)[C@H](O)c3ccccc3)[nH]2)ccc1-c1ccc(-c2cnc([C@@H]3CCCN3C(=O)[C@H](O)c3ccccc3)[nH]2)cc1 [Example 125, (1R,1′R)-2,2′-((2-methyl-4,4′-biphenyldiyl)bis(1H-imidazole-5,2-diyl(2S)-2,1-pyrrolidinediyl))bis(2-oxo-1-phenylethanol)] was tested, and the EC50 (Hepatitis C virus) was 0.001 to 0.999 nM.

Compound COC(=O)N[C@@H](C(=O)N1CCC[C@H]1c1ncc(-c2ccc(-c3ccc(-c4cnc([C@@H]5CCCN5C(=O)[C@@H](c5ccccc5)N(C)C)[nH]4)cc3C)cc2)[nH]1)c1ccccc1 [Example 126, methyl ((1R)-2-((2S)-2-(5-(4′-(2-((2S)-1-((2R)-2-(dimethylamino)-2-phenylacetyl)-2-pyrrolidinyl)-1H-imidazol-5-yl)-2′-methyl-4-biphenylyl)-1H-imidazol-2-yl)-1-pyrrolidinyl)-2-oxo-1-phenylethyl)carbamate] has an EC50 (Hepatitis C virus) of 0.001 to 0.999 nM.

In the case of COC(=O)N[C@@H](C(=O)N1CCC[C@H]1c1ncc(-c2ccc(-c3ccc(-c4cnc([C@@H]5CCCN5C(=O)Cc5cccnc5)[nH]4)cc3C)cc2)[nH]1)c1ccccc1 [Example 127, methyl ((1R)-2-((2S)-2-(5-(2′-methyl-4′-(2-((2S)-1-(3-pyridinylacetyl)-2-pyrrolidinyl)-1H-imidazol-5-yl)-4-biphenylyl)-1H-imidazol-2-yl)-1-pyrrolidinyl)-2-oxo-1-phenylethyl)carbamate], the EC50 (Hepatitis C virus) is reported as 0.001 to 0.999 nM.

Work on COC(=O)N[C@@H](C(=O)N1CCC[C@H]1c1ncc(-c2ccc(-c3ccc(-c4cnc([C@@H]5CCCN5C(=O)[C@@H]5CCCO5)[nH]4)cc3C)cc2)[nH]1)c1ccccc1 [Example 128, methyl ((1R)-2-((2S)-2-(5-(2′-methyl-4′-(2-((2S)-1-((2S)-tetrahydro-2-furanylcarbonyl)-2-pyrrolidinyl)-1H-imidazol-5-yl)-4-biphenylyl)-1H-imidazol-2-yl)-1-pyrrolidinyl)-2-oxo-1-phenylethyl)carbamate] yielded an EC50 (Hepatitis C virus) of 0.001 to 0.999 nM.

COC(=O)N[C@@H](C(=O)N1CCC[C@H]1c1ncc(-c2ccc(-c3ccc(-c4cnc([C@@H]5CCCN5C(=O)[C@@H](c5ccccc5)N(C)C)[nH]4)cc3C)c(C)c2)[nH]1)c1ccccc1 [Example 129, methyl ((1R)-2-((2S)-2-(5-(4′-(2-((2S)-1-((2R)-2-(dimethylamino)-2-phenylacetyl)-2-pyrrolidinyl)-1H-imidazol-5-yl)-2,2′-dimethyl-4-biphenylyl)-1H-imidazol-2-yl)-1-pyrrolidinyl)-2-oxo-1-phenylethyl)carbamate] gave an EC50 (Hepatitis C virus) of 0.001 to 0.999 nM.

With CN(C)[C@@H](C(=O)N1CCC[C@H]1c1ncc(-c2ccc(-c3ccc(-c4cnc([C@@H]5CCCN5C(=O)[C@@H](c5ccccc5)N(C)C)[nH]4)cc3C(F)(F)F)cc2)[nH]1)c1ccccc1 [Example 130] the EC50 (Hepatitis C virus) was 0.001 to 0.999 nM.

For COC(=O)N[C@@H](C(=O)N(C)[C@@H](C)c1ncc(-c2ccc(-c3ccc(-c4cnc([C@@H]5CCCN5C(=O)[C@@H](c5ccccc5)N(C)C)[nH]4)cc3)cc2)[nH]1)c1ccccc1 [Example 131.1-1, methyl ((1R)-2-(((1S)-1-(5-(4′-(2-((2S)-1-((2R)-2-(dimethylamino)-2-phenylacetyl)-2-pyrrolidinyl)-1H-imidazol-5-yl)-4-biphenylyl)-1H-imidazol-2-yl)ethyl)(methyl)amino)-2-oxo-1-phenylethyl)carbamate], the EC50 (Hepatitis C virus) was 0.001 to 0.999 nM.

Work on COC(=O)N[C@@H](C(=O)N(C)[C@@H](C)c1ncc(-c2ccc(-c3ccc(-c4cnc([C@@H]5CCCN5C(=O)[C@@H](c5ccccc5)N5CCCCC5)[nH]4)cc3)cc2)[nH]1)c1ccccc1 [Example 131.1-2, methyl ((1R)-2-(methyl((1S)-1-(5-(4′-(2-((2S)-1-((2R)-2-phenyl-2-(1-piperidinyl)acetyl)-2-pyrrolidinyl)-1H-imidazol-5-yl)-4-biphenylyl)-1H-imidazol-2-yl)ethyl)amino)-2-oxo-1-phenylethyl)carbamate] yielded an EC50 (Hepatitis C virus) of 0.001 to 0.999 nM.

For O=C([C@@H](c1ccccc1)N1CCCC1)N1CCC[C@H]1c1ncc(-c2ccc(-c3ccc(-c4cnc([C@@H]5CCCN5C(=O)[C@@H](c5ccccc5)N5CCCC5)[nH]4)cc3C(F)(F)F)cc2)[nH]1 [Example 131], the EC50 (Hepatitis C virus) was 0.001 to 0.999 nM.

CN(C)[C@@H](C(=O)N1CCC[C@H]1c1ncc(-c2ccc(-c3ccc(-c4cnc([C@@H]5CCCN5C(=O)[C@@H](c5ccccc5)N(C)C)[nH]4)cn3)cc2)[nH]1)c1ccccc1 [Example 132, (1R)-2-((2S)-2-(5-(6-(4-(2-((2S)-1-((2R)-2-(dimethylamino)-2-phenylacetyl)-2-pyrrolidinyl)-1H-imidazol-5-yl)phenyl)-3-pyridinyl)-1H-imidazol-2-yl)-1-pyrrolidinyl)-N,N-dimethyl-2-oxo-1-phenylethanamine] gave an EC50 (Hepatitis C virus) of 0.001 to 0.999 nM.

For O=C([C@H](O)c1ccccc1)N1CCC[C@H]1c1ncc(-c2ccc(-c3ccc(-c4cnc([C@@H]5CCCN5C(=O)[C@H](O)c5ccccc5)[nH]4)cn3)cc2)[nH]1 [Example 133, (1R)-2-((2S)-2-(5-(6-(4-(2-((2S)-1-((2R)-2-hydroxy-2-phenylacetyl)-2-pyrrolidinyl)-1H-imidazol-5-yl)phenyl)-3-pyridinyl)-1H-imidazol-2-yl)-1-pyrrolidinyl)-2-oxo-1-phenylethanol], the EC50 (Hepatitis C virus) was 1 to 99 nM.

In the case of COC(=O)N[C@@H](C(=O)N1CCC[C@H]1c1ncc(-c2ccc(-c3ccc(-c4cnc([C@@H]5CCCN5C(=O)[C@H](NC(=O)OC)c5ccccc5)[nH]4)cn3)cc2)[nH]1)c1ccccc1 [Example 134, methyl ((1R)-2-((2S)-2-(5-(6-(4-(2-((2S)-1-((2R)-2-((methoxycarbonyl)amino)-2-phenylacetyl)-2-pyrrolidinyl)-1H-imidazol-5-yl)phenyl)-3-pyridinyl)-1H-imidazol-2-yl)-1-pyrrolidinyl)-2-oxo-1-phenylethyl)carbamate], the EC50 (Hepatitis C virus) is reported as 0.001 to 0.999 nM.

Work on CO[C@@H](C(=O)N1CCC[C@H]1c1ncc(-c2ccc(-c3ccc(-c4cnc([C@@H]5CCCN5C(=O)[C@H](OC)c5ccccc5)[nH]4)cn3)cc2)[nH]1)c1ccccc1 [Example 135, 5-(2-((2S)-1-((2R)-2-methoxy-2-phenylacetyl)-2-pyrrolidinyl)-1H-imidazol-5-yl)-2-(4-(2-((2S)-1-((2R)-2-methoxy-2-phenylacetyl)-2-pyrrolidinyl)-1H-imidazol-5-yl)phenyl)pyridine] yielded an EC50 (Hepatitis C virus) of 0.001 to 0.999 nM.

In the case of Cc1cc(-c2cnc([C@@H]3CCCN3C(=O)[C@@H](c3ccccc3)N(C)C)[nH]2)ccc1-c1ccc(-c2cnc([C@@H]3CCCN3C(=O)[C@@H](c3ccccc3)N(C)C)[nH]2)cn1 [Example 136, (1R)-2-((2S)-2-(5-(6-(4-(2-((2S)-1-((2R)-2-(dimethylamino)-2-phenylacetyl)-2-pyrrolidinyl)-1H-imidazol-5-yl)-2-methylphenyl)-3-pyridinyl)-1H-imidazol-2-yl)-1-pyrrolidinyl)-N,N-dimethyl-2-oxo-1-phenylethanamine], the EC50 (Hepatitis C virus) is reported as 0.001 to 0.999 nM.

In the case of COC(=O)N[C@@H](C(=O)N1CCC[C@H]1c1ncc(-c2ccc(-c3ccc(-c4cnc([C@@H]5CCCN5C(=O)[C@H](NC(=O)OC)c5ccccc5)[nH]4)cc3C)nc2)[nH]1)c1ccccc1 [Example 138], the EC50 is reported as 0.001 to 0.999 nM.

CC(=O)N[C@@H](C(=O)N1CCC[C@H]1c1ncc(-c2ccc(-c3ccc(-c4cnc([C@@H]5CCCN5C(=O)[C@H](NC(C)=O)c5ccccc5)[nH]4)cn3)cc2)[nH]1)c1ccccc1 [Example 139, N-((1R)-2-((2S)-2-(5-(6-(4-(2-((2S)-1-((2R)-2-acetamido-2-phenylacetyl)-2-pyrrolidinyl)-1H-imidazol-5-yl)phenyl)-3-pyridinyl)-1H-imidazol-2-yl)-1-pyrrolidinyl)-2-oxo-1-phenylethyl)acetamide] was tested, and the EC50 (Hepatitis C virus) was 0.001 to 0.999 nM.

COC(=O)N[C@@H](C(=O)N1CCC[C@H]1c1ncc(-c2ccc(-c3ccc(-c4cnc([C@@H]5CCCN5C(=O)[C@@H](c5ccccc5)N(C)C)[nH]4)cn3)cc2)[nH]1)c1ccccc1 [Example 140, methyl ((1R)-2-((2S)-2-(5-(4-(5-(2-((2S)-1-((2R)-2-(dimethylamino)-2-phenylacetyl)-2-pyrrolidinyl)-1H-imidazol-5-yl)-2-pyridinyl)phenyl)-1H-imidazol-2-yl)-1-pyrrolidinyl)-2-oxo-1-phenylethyl)carbamate] showed an EC50 (Hepatitis C virus) of 0.001 to 0.999 nM.

COC(=O)N[C@@H](C(=O)N1CCC[C@H]1c1ncc(-c2ccc(-c3ccc(-c4cnc([C@@H]5CCCN5C(=O)[C@H]5CCCO5)[nH]4)cn3)cc2)[nH]1)c1ccccc1 [Example 141, methyl ((1R)-2-oxo-1-phenyl-2-((2S)-2-(5-(4-(5-(2-((2S)-1((2R)-tetrahydro-2-furanylcarbonyl)-2-pyrrolidinyl)-1H-imidazol-5-yl)-2-pyridinyl)phenyl)-1H-imidazol-2-yl)-1-pyrrolidinyl)ethyl)carbamate] showed an EC50 (Hepatitis C virus) of 0.001 to 0.999 nM.

For COC(=O)N[C@@H](C(=O)N1CCC[C@H]1c1ncc(-c2ccc(-c3ccc(-c4cnc([C@@H]5CCCN5C(=O)C5CCN(C)CC5)[nH]4)cn3)cc2)[nH]1)c1ccccc1 [Example 142, methyl ((1R)-2-((2S)-2-(5-(4-(5-(2-((2S)-1-((1-methyl-4-piperidinyl)carbonyl)-2-pyrrolidinyl)-1H-imidazol-5-yl)-2-pyridinyl)phenyl)-1H-imidazol-2-yl)-1-pyrrolidinyl)-2-oxo-1-phenylethyl)carbamate], the EC50 (Hepatitis C virus) was 1 to 99 nM.

COC(=O)N[C@@H](C(=O)N1CCC[C@H]1c1ncc(-c2ccc(-c3ccc(-c4cnc([C@@H]5CCCN5C(=O)Cc5cccnc5)[nH]4)cn3)cc2)[nH]1)c1ccccc1 [Example 143, methyl ((1R)-2-oxo-1-phenyl-2-((2S)-2-(5-(4-(5-(2-((2S)-1-(3-pyridinylacetyl)-2-pyrrolidinyl)-1H-imidazol-5-yl)-2-pyridinyl)phenyl)-1H-imidazol-2-yl)-1-pyrrolidinyl)ethyl)carbamate] showed an EC50 (Hepatitis C virus) of 0.001 to 0.999 nM.
